Source: the supplement of paper PMC10307832

Legend:
Assay in all cases: relative viability (nuclei count vs DMSO), 5 days (fraction); higher = more cells survive
AZD8055 + Bortezomib = compound: COc1ccc(-c2ccc3c(N4CCOC[C@@H]4C)nc(N4CCOC[C@@H]4C)nc3n2)cc1CO [AZD8055] + CC(C)C[C@H](NC(=O)[C@H](Cc1ccccc1)NC(=O)c1cnccn1)B(O)O [Bortezomib] (partner 0.002 µM)
How it was run: (§1)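 Lung cancer cell lines in 1536-well plates got either a single drug or a fixed anchor-drug dose together with five library-drug doses (not always all listed) in √10 steps, by pin tool, on the day after seeding. Nuclei were counted after 5 days, and relative viability is the treated-to-vehicle ratio of nuclei counts. Values are medians of duplicate plates.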

AZD8055 + Lapatinib = compound: COc1ccc(-c2ccc3c(N4CCOC[C@@H]4C)nc(N4CCOC[C@@H]4C)nc3n2)cc1CO [AZD8055] + CS(=O)(=O)CCNCc1ccc(-c2ccc3ncnc(Nc4ccc(OCc5cccc(F)c5)c(Cl)c4)c3c2)o1 [Lapatinib] (partner 2 µM)
How it was run: as §1

AZD8055 + AZD7762 = compound: COc1ccc(-c2ccc3c(N4CCOC[C@@H]4C)nc(N4CCOC[C@@H]4C)nc3n2)cc1CO [AZD8055] + NC(=O)Nc1cc(-c2cccc(F)c2)sc1C(=O)N[C@H]1CCCNC1 [AZD7762] (partner 0.2 µM)
How it was run: as §1

AZD8055 + Decitabine = compound: COc1ccc(-c2ccc3c(N4CCOC[C@@H]4C)nc(N4CCOC[C@@H]4C)nc3n2)cc1CO [AZD8055] + Nc1ncn([C@H]2C[C@H](O)[C@@H](CO)O2)c(=O)n1 [Decitabine] (partner 2 µM)
How it was run: as §1

Cell Line | relative viability (AZD8055 + Bortezomib; first compound 0.01 µM) | relative viability (AZD8055 + Bortezomib; first compound 0.03162 µM) | relative viability (AZD8055 + Bortezomib; first compound 0.1 µM) | relative viability (AZD8055 + Bortezomib; first compound 0.3162 µM) | relative viability (AZD8055 + Bortezomib; first compound 1 µM) | relative viability (AZD8055 + Lapatinib; first compound 0.01 µM) | relative viability (AZD8055 + Lapatinib; first compound 0.03162 µM) | relative viability (AZD8055 + Lapatinib; first compound 0.1 µM) | relative viability (AZD8055 + Lapatinib; first compound 0.3162 µM) | relative viability (AZD8055 + Lapatinib; first compound 1 µM) | relative viability (AZD8055 + AZD7762; first compound 0.01 µM) | relative viability (AZD8055 + AZD7762; first compound 0.03162 µM) | relative viability (AZD8055 + AZD7762; first compound 0.1 µM) | relative viability (AZD8055 + AZD7762; first compound 0.3162 µM) | relative viability (AZD8055 + AZD7762; first compound 1 µM) | relative viability (AZD8055 + Decitabine; first compound 0.01 µM) | relative viability (AZD8055 + Decitabine; first compound 0.03162 µM) | relative viability (AZD8055 + Decitabine; first compound 0.1 µM) | relative viability (AZD8055 + Decitabine; first compound 0.3162 µM) | relative viability (AZD8055 + Decitabine; first compound 1 µM)
EMC-BAC-2 | 1.06 | 1.04 | 0.954 | 0.465 | 0.382 | 0.867 | 0.777 | 0.74 | 0.403 | 0.406 | 1.03 | 0.912 | 0.956 | 0.517 | 0.377 | 1.02 | 0.875 | 0.817 | 0.498 | 0.505
EPLC-272H | 0.74 | 0.62 | 0.754 | 0.522 | 0.691 | 0.735 | 0.75 | 0.549 | 0.471 | 0.459 | 0.178 | 0.0952 | 0.243 | 0.109 | 0.127 | 0.41 | 0.265 | 0.272 | 0.248 | 0.226
H3255 | 0.777 | 0.901 | 0.525 | 0.371 | 0.259 | 0.228 | 0.209 | 0.227 | 0.212 | 0.229 | 1.03 | 0.951 | 0.803 | 0.471 | 0.413 | 0.535 | 0.568 | 0.48 | 0.316 | 0.281
HARA | 1.12 | 1.23 | 1.11 | 0.725 | 0.54 | 0.75 | 0.614 | 0.408 | 0.326 | 0.224 | – | 0.384 | 0.406 | 0.487 | 0.306 | – | 0.355 | 0.414 | 0.321 | 0.357
HCC-15 | 1.17 | 1.1 | 0.976 | 0.663 | 0.615 | 0.834 | 0.877 | 0.886 | 0.474 | 0.333 | 1.26 | 1.18 | 1.21 | 0.885 | 0.559 | 0.667 | 0.587 | 0.597 | 0.319 | 0.255
HCC-44 | 1.01 | 0.942 | 0.853 | 0.494 | 0.449 | 1.09 | 0.997 | 0.769 | 0.565 | 0.443 | 1.03 | 1.01 | 0.972 | 0.992 | 0.925 | 0.971 | 0.849 | 0.812 | 0.8 | 0.735
HCC-78 | 0.561 | 0.466 | 0.423 | 0.274 | 0.288 | 0.934 | 0.547 | 0.406 | 0.225 | 0.217 | 0.658 | 0.541 | 0.47 | 0.347 | 0.269 | 0.729 | 0.437 | 0.564 | 0.381 | 0.412
HCC-366 | 1.31 | 0.863 | 0.98 | 0.337 | 0.123 | 1.12 | 0.93 | 0.864 | 0.27 | 0.2 | 0.364 | 0.255 | 0.268 | 0.124 | 0.0821 | 0.392 | 0.233 | 0.281 | 0.144 | 0.14
